According to patent publication US20110166066A1, “CATESTATIN (CST) AND ITS VARIANTS FOR TREATMENT OF CARDIOVASCULAR AND METABOLIC DISORDERS” (priority 2008, published 2011):
No end group written: not given here.

Assays:
[1] = test system: WT and Chga knockout (KO) mice; assay: BP and HR by telemetry in immobilization stress, conscious mice; format: in vivo
Excerpt: Animals. Chga knockout (KO) mice and their wild-type (WT) littermates were generated as described (13). All animals were housed on a 12 hr light dark cycle and fed a standard rodent chow. The Animal Care and Use Committee of University of California at San Diego approved all protocols for animal use and euthanasia in accordance with National Institute of Health guidelines. Both WT and KO mice (5-6 month old) in this study were from mixed (129 SvJ and C57BL/6) genetic background.
Conscious mice. Measurement of BP and HR in immobilization stress-induced telemetered mice: BP & HR were measured by telemetry as described previously (13). The experiments were initiated 10 days after the surgery. Immobilization stress was initiated by placing mice in restrainer (Braintree Scientific Inc, Braintree, Mass.) at 10:00 AM and kept for 2 hrs for continuous recording of BP and HR by telemetry followed by recovery from stress in home cages for 2 hrs. CST was injected (40 μg/g bw ip) 30 minutes before stress induction to explore the role of CST in stress response.

[2] = test system: PLN (phospholamban) Ser16; assay: Immunoblot of phosphorylated PLN in WT-CST perfused hearts; design: species or system rat; conditions: 110 nM
Experimental: (§1) Cardiac signaling—Hearts were perfused with or without 110 nM WT-Cts as before. At the end of experiment hearts were snap frozen under liquid nitrogen and homogenized with 1 ml of ice cold 0.2 M sucrose, Tris maleate (pH 7.0) buffer supplemented with 2 mM EDTA, pH 8.0, 1 mM sodium orthovanadate, 10 mM sodium pyrophosphate, 1 mM phenylmethylsulfonyl fluoride, 10 μg/ml leupeptin, 10 μg/ml aprotinin and 0.1 mM 3-isobutyl-1-methylxanthine. SR membrane fractions were isolated from cytosolic proteins as described before (27). Protein content was determined by Bradford assay (BIO-RAD) and 100 μg of cytosolic protein was subjected to SDS-PAGE immunoblot analysis for phosphorylated-ERK, total ERK (P-ERK and T-ERK; Santa Cruz, Calif.). […]
(§2) Statistics—Data are expressed as the mean±SEM. Curve fitting was accomplished in the program Kaleidagraph (Synergy Software, Reading, Pa.). […] For analysis of phosphorylated proteins, levels were quantified using Bio-Rad QuantifyOne and volumes of phosphorylated proteins were divided by the levels of non-phosphorylated proteins to calculate fold activation. Stimulation of protein activity was expressed as fold increase over vehicle-treated control. The means and S.E.M. were calculated for each treatment. […]

[3] = test system: Langendorff perfused rat heart; assay: Isoproterenol stimulated Langendorff heart preparations
Experimental: Isoproterenol stimulated preparations—Cardiac preparations were stabilized for 20 min with KHs and then perfused with 5 nM ISO for 10 min. ISO was washed-out with KHs. After returning to control conditions, each heart was perfused with KHs containing a single concentration of WT-Cts […] or G364S-Cts (200 nM) with 5 nM ISO for a further 10 min.
To further describe the antagonistic action of either WT-Cts (33 nM), P370L-Cts (110 nM) or G364S-Cts (200 nM) against ISO-dependent stimulation, dose-response curves were generated by perfusing the heart preparations with KHs enriched with increasing concentrations of ISO (0.1 nM to 1 μM) alone. These curves were then compared to those obtained by exposing other cardiac preparations to the same perfusion medium containing increasing concentrations of ISO (0.1 nM to 1 μM) plus a single concentration of either WT-Cts (33 nM) or P370L-Cts (110 nM) or G364S-Cts (200 nM).
Statistics—Data are expressed as the mean±SEM. Curve fitting was accomplished in the program Kaleidagraph (Synergy Software, Reading, Pa.). Peptide EC50 and IC50 values were interpolated as the concentration that achieved 50% stimulation and inhibition, respectively. For analysis of phosphorylated proteins, levels were quantified using Bio-Rad QuantifyOne and volumes of phosphorylated proteins were divided by the levels of non-phosphorylated proteins to calculate fold activation. Stimulation of protein activity was expressed as fold increase over vehicle-treated control. The means and S.E.M. were calculated for each treatment. Multiple comparisons were made using either one-way ANOVA followed by Bonferroni's post-hoc test or two-way ANOVA. Statistical significance was concluded at p<0.05. Statistics were computed with the program InStat (GraphPad Software, Inc., San Diego, Calif.).
To characterize the inhibitory action of either WT-CST (11, 33 or 110 nM), G364S-CST (200 nM) or P370L-CST (110 nM) toward ISO-dependent stimulation of cardiac function, heart preparations were perfused with KHs containing increasing concentrations of ISO (0.1 nM to 1 μM) either alone or in combination with one of the three CST variants.

[4] = test system: AKT Ser473; assay: Immunoblot of phosphorylated Akt in WT-CST perfused hearts; design: species or system rat; conditions: 110 nM
Experimental: as §1, §2

[5] = test system: C57/BL/6J mice cornea; assay: Cornea neovascularisation assay; format: in vivo; conditions: pellet 500 ng, day 7
Experimental: Cornea Neovascularisation Assay. Pellets containing 500 ng Catestatin were implanted in C57/BL/6J mice (age of 8 weeks) as described (36). On postoperative day 7 mice received an intravenous injection of 500 μg BS1 lectin conjugated to FITC (Vector Laboratories). After euthanasia, enucleated eyes were fixed in 1% paraformaldehyde, corneas dissected and examined by fluorescence microscopy.

[6] = test system: CgA null mice; conditions: pre-treatment; cited from earlier work
[7] = test system: Langendorff perfused rat heart; assay: ET-1 stimulated Langendorff heart preparations
Experimental: ET-1 stimulated preparations—Hearts, stabilized for 20 min with KHs, were perfused for 10 min with ET-1 (1 nM) and then washed-out with KHs. After returning to control conditions, each heart was perfused with KHs containing a single concentration of either WT-Cts (33 nM), P370L-Cts (110 nM) or G364S-Cts (200 nM) plus 1 nM ET-1 for a further 10 min.

## SSMKLSFRARAYGFRGPGPQL [WT-CST, catestatin]
[1]; KO mice
  Heightened HR responses to stress: abolished
  SBP after 1 h of recovery from the stress: brought SBP to WT level
[1]; KO mice, 40 μg/g bw ip
  Basal SBP: decreased
  Stress-induced increments in SBP: attenuated
[1]; KO mice, stress and recovery
  HR AUC: 143340±1889
  SBP AUC: 26639±399
[1]; WT and KO mice
  Basal or stress-induced increments in DBP: no significant effect
[1]; WT mice
  Basal and stress-induced increase in HR: no effect
[1]; WT mice, 40 μg/g bw ip
  Basal SBP: no effect
[1]; WT mice, 40 μg/g bw ip 30 min before stress
  Attenuation of stress-induced increments in SBP: 7.1 mmHg
[2]
  Phosphorylation of PLN at Ser16: inhibited
[3]
  Type of antagonism against ISO: non-competitive type of antagonism
[3]; ISO 5 nM
  Block of ISO-dependent +(LVdP/dT)max: ~90%
  ISO induced coronary dilation: blocked
  ISO-induced positive lusitropism: blocked
  Rank order of potency against ISO: Order of potency: WT-CST > G364S-CST > P370L-CST
[3]; ISO 5 nM, measured at 5 min
  ISO stimulatory effect on LVP: abolished
[3]; Table 3, ISO 5 nM
  Coronary pressure (ISO alone or ISO + peptide): Abolished
  Inotropism (ISO alone or ISO + peptide): Abolished
  Lusitropism (ISO alone or ISO + peptide): Abolished
[4]
  Phosphorylation of AKT at Ser473: inhibited
[5]
  Angiogenesis in the cornea: induced growth of arteries
[6]
  High blood pressure in CgA null mice: lowers the high blood pressure in CgA null mice to normal levels
[7]; ET-1 1 nM, WT-CST 33 nM, P370L-CST 110 nM, G364S-CST 200 nM
  ET-1 induced positive inotropism: blocked
[7]; higher doses (10 nM)
  Effect on LVP and +(LVdP/dT)max: decreased
